In PMC3364214, “Role of Operon aaoSo-mutT in Antioxidant Defense in Streptococcus oligofermentans” (PLoS ONE, 2012):

Molecular target: T1, MutT (Streptococcus cristatus, UniProt A0ABN4B3E2)
T1 construct: gene I872_01330; mutT (453 bp fragment) in NcoI-XhoI of pET-28a, His6-tag fusion (C-terminal by the primers), E. coli BL21(DE3) pLysS, Histrap purified; tag removal not mentioned
T1 sequence (A0ABN4B3E2 1-151): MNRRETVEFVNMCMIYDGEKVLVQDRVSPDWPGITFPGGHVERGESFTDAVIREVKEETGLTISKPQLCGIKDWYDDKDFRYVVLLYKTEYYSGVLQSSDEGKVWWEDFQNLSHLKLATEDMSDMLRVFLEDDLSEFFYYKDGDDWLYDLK
Experiment: HPLC of 8-oxo-dGTP degradation (UV […] nm)
Type: biochemical
Conditions: 100 uM substrate, 100 nM MutT, 5 mM MgCl2, 100 mM Tris-HCl pH 9.0, 5% glycerol, 37 C, 20 min

## Nc1nc2c([nH]c(=O)n2[C@H]2C[C@H](O)[C@@H](COP(=O)(O)OP(=O)(O)OP(=O)(O)O)O2)c(=O)[nH]1 [8-oxo-dGTP]
  HPLC of 8-oxo-dGTP degradation (UV 293 nm): reduction of 8-oxo-dGTP levels was detected in the reaction mixture by HPLC
